Assay results published in PMC8840173 (Molecules, 2022).
Values after ≈ are worked out from the molar mass of the structure shown. Like-named read-outs stand apart in the source and are kept apart here.

Assays:
[1] = target: butyryl cholinesterase; set-up: method as in PMID 23046385; conditions: read-out: inhibitory activity against butyryl cholinesterase IC50; cited from earlier work
[2] = test system: lung cancer cell line A549; conditions: cited from earlier work
[3] = physchem; format: physicochemical; conditions: for light transmittance of the diluted solution: 1 h, 1.82 mM
Protocol: All the metabolites obtained during this study were more polar than their parent compound (−)-α-bisabolol (1) and proposed to have higher aqueous solubility. In order to confirm the improvement in solubility, a modified kinetic solubility test was carried out using the stock solutions of compounds 1–12 (20 mM in dimethyl sulfoxide). […] This was confirmed by measuring the light transmittance of the diluted solutions.
The solubility of compounds 1–12 was evaluated by the modified kinetic solubility assay. Compounds 1–12 were dissolved in dimethyl sulfoxide (DMSO) to yield 20 mM stock solutions, then 10 μL of the compound stock solution was diluted with 100 μL water. After all the solutions were prepared, the vials were placed under room temperature and allowed to mix for 1 h. After this, the light transmittance was measured at a scan width of 5 nm over the range of 390 to 650 nm using a SpectraMax 190 Microplate reader (Molecular Devices, Sunnyvale, CA, USA). After centrifugation, the supernatant was analyzed by HPLC under 200 nm using a Zorbax SB-CN (250 × 10 mm) column with 60% methanol as mobile phase at a flow rate of 2 mL/min.

[4] = test system: promastigotes; set-up: method as in PMID 25448354, PMID 27616730; conditions: in vitro, cited from earlier work
[5] = set-up: method as in earlier work; conditions: antioxidant activity; cited from earlier work
[6] = test system: LPS-induced production of NO and PGE2; set-up: method as in PMID 21771629; conditions: dose-dependent; cited from earlier work
[7] = set-up: method as in PMID 24894548; conditions: cited from earlier work
[8] = test system: healthy and infected hamsters; conditions: cited from earlier work

Q: For 14-hydroxymethyl caryophyllene oxide, which IC50 [1] is on record?
A: 10.9 µM

Q: Which “cytotoxic activity IC50” value [2] does the source give for `C=C(CO)C1CCC2=CC(=O)CC(C)C2(C)C1` (centres unmarked) [13-hydroxynootkatone] here?
A: 36 mg/L

Q: Which “appearance after dilution (turbidity / precipitates)” value ([3]; 10 μL of 20 mM DMSO stock diluted with 100 μL water) does the source give for `CC(C)=CCC[C@](C)(O)[C@@H]1CC=C(C)CC1` [Compound 1, (−)-α-Bisabolol] here?
A: White turbidity

Q: And the “light transmittance of the diluted solution” value (shortened to “light transmittance”) [3]?
A: less than 50%

Q: And the solubility at 1 h ([3]; aqueous with cosolvent or surfactant or cyclodextrin, kinetic from dmso stock)?
A: 260 µM (≈ 57.8 µg/mL)

Q: What about the “antileishmanial activity IC50” value ([4]; 24 h) of the same molecule?
A: 8.07 mg/L

Q: What about the “antileishmanial activity IC50” value ([4]; 48 h) of the same molecule?
A: 4.26 mg/L

Q: What about the “IC50 for DPPH radical scavenging ability” value [5] of the same molecule?
A: 43880 mg/L

Q: And the “effect on LPS-induced production of NO and PGE2” value [6]?
A: significantly reduce

Q: What about the “effect on TPA-induced ear thickness and histopathological damage in the ear tissue” value [7] of the same molecule?
A: significantly inhibited

Q: And the “toxicity or side effects after administration” value [8]?
A: did not lead to the appearance of toxicity or side effects

Q: For `CC(C)=CCC[C@](C)(O)[C@@H]1CC=C(C)[C@H](O)C1` [Compound 2, (1R,5R,7S)-5-hydroxy-α-bisabolol], which “light transmittance” value [3] is on record?
A: 90%

Q: Which “light transmittance” value [3] does the source give for `CC1=CC[C@@](O)([C@]2(C)CC[C@@H](C(C)(C)O)O2)CC1` [Compound 5, (1R,7S,10S)-1-hydroxybisabolol oxide B] here?
A: 90%

Q: Which “light transmittance” value [3] does the source give for `CC(C)=CCC[C@](C)(O)[C@H]1CC[C@](C)(O)[C@H](O)C1` [Compound 8, (1S,3R,4S,7S)-3,4-dihydroxy-α-bisabolol] here?
A: 90%

Q: Which “light transmittance” value [3] does the source give for `CC(C)=CCC[C@](C)(O)[C@@H]1CC=C(CO)CC1` [Compound 11, 15-hydroxy-α-bisabolol] here?
A: 90%

Q: Which IC50 [1] does the source give for `C=C1CC[C@H]2O[C@]2(C)CC[C@@H]2[C@@H]1CC2(C)C` [caryophyllene oxide] here?
A: 208 µM

Q: With `CC1=CC[C@@H]([C@]2(C)CC[C@H](O)C(C)(C)O2)CC1` [α-Bisabolol oxide A] as the molecule, how does the “IC50 for DPPH radical scavenging ability” value [5] read?
A: 1500 mg/L
